{"source": "patent US11007206B2", "about": "“Cyclic boronic acid ester derivatives and therapeutic uses thereof” (Melinta Subsidiary Corp., priority 2012, dated 2021)", "assay_type_in_all_cases": "in vivo", "key": {"[1]": {"experiment": "Plasma pharmacokinetics of Compound I after single intraperitoneal dose in Swiss-Webster mice (Example 1)", "conditions": "mouse plasma, individual animals", "description": "Example 1 provides a summary of three pharmacokinetic studies Compound I conducted in Swiss-webster mice. The pharmacokinetics of 5 mg/kg, 15 mg/kg and 50 mg/kg of Compound I via the intraperitoneal route were discussed.\nCompound I was prepared using the method described in the U.S. Publication 2012/0040932 A1. 100 mg of Compound I was dissolved in 30% 1N NaOH to ˜pH 5.0 as a stock solution. Compound I was further diluted in 0.9% saline to achieve target concentrations.\nThe specifications for animals used on this study were as follows: • Species: Mouse • Strain: CFW (Swiss) • Gender: Female • Source: Harlan Laboratories (Livermore, Calif.) • Number of Animals: 33 for each dose • Body Weight Range: 18-22 g at the start of the study\nAfter acclimation, mice were administered a single intraperitoneal dose of Compound I at 5, 15, and 50 mg/kg. Groups of three mice were sacrificed at 0.08, 0.16, 0.25, 0.33, 0.5, 0.75, 1.0, 2.0, 3.0, and 4.0 h after dosing. Blood samples (one sample per animal) were collected by cardiac puncture in a heparin containing tube. Blood samples were centrifuged within 5 min of collection at 12000 g for 5 min to obtain plasma. The plasma samples were stored on −80° C. until analyzed.\nCompound I standard curves were prepared in plasma from 0.1 to 100 μg/mL. 50 μl aliquots of sample were placed in 1.5 mL microcentrifuge tubes. 20 μl of Compound II (10 μg/mL) was added as internal standard to each sample or standard. 20 μl of 30% trichloroacetic acid was then added to each sample or standard. The samples were mixed using a vortex mixer centrifuged for 10 min at 15,000 RPM using a tabletop centrifuge. The supernatant (approx. […]) was removed and added to 100 μl of water in a 96-well plate. The samples were mixed again using a vortex mixer. 10 μl of each sample was injected onto an HPLC-MS for quantification.\nThe HPLC-MS conditions for plasma analysis are as follows: • Column: Phenomenex Fusion-RP or equivalent reversed-phase column, 5 um, 50×2 mm. • Flow rate: 0.6 mL/min. • Mobile phase A: 0.1% formic acid in water. • Mobile phase B: 0.1% formic acid in acetonitrile. • Gradient: 5-60% B in 1.5 min. • Mass spectrometer: Negative ion mode with electrospray ionization. • MS/MS: Compound I-Q1-m/e=296, Q3-m/e=234. • Compound II-Q1-m/e=331, Q3-m/e=201.\nPlasma concentrations were fit using a one compartment IV infusion model (WinNonlinVersion 5.3, Pharsight Corp, and Mountain View, Calif.)."}, "[2]": {"experiment": "Single-dose pharmacokinetics of Compound I, intravenous 30-minute infusion in Cynomologus monkeys (Example 5)", "conditions": "Monkey; for half-life / AUC / Cmax: in vivo", "description": "(§1) Example 5 provides the single-dose pharmacokinetic studies of Compound I inpreclinical species, including intraperitoneal administration to Swiss-Webster mice and intravaneous administration to Sprague-Dawley rats, Beagle dogs, and Cynomologus monkeys.\n(§2) Intravaneous doses of Compound I were administered as 30-minute infusions. The pharmacokinetics of Compound I were also studied with coadministration of the carbapenem, Biapenem. Compound I concentrations were determined using an LC-MS detection method."}, "[3]": {"experiment": "Single-dose pharmacokinetics of Compound I, intravenous 30-minute infusion in Beagle dogs (Example 5)", "conditions": "Dog; for AUC / Cmax / half-life: Beagle, in vivo", "description": "as §1, §2"}}, "note": "Values joined by “and” are separate entries in the source; they are usually repeats but may differ in a detail not shown here. Identical values can stand only once."}
{"compound": "O=C(O)C[C@@H]1CC[C@H](NC(=O)Cc2cccs2)B(O)O1", "note": "[Compound I]", "values": [{"measurement": "Calc. Conc. (plasma concentration)", "setting": "[1]; 15 mg/kg intraperitoneal, samples m.p. 5.x = 5th time point (0.5 h), 15 mg/kg", "result": "4.07 µg/mL and 3.52 µg/mL and 7.05 µg/mL"}, {"measurement": "Calc. Conc. (plasma concentration)", "setting": "[1]; 15 mg/kg intraperitoneal, samples m.p. 6.x = 6th time point (0.75 h), 15 mg/kg", "result": "0.0261 µg/mL and 3.72 µg/mL and 2.99 µg/mL"}, {"measurement": "Calc. Conc. (plasma concentration)", "setting": "[1]; 15 mg/kg intraperitoneal, samples m.p. 7.x = 7th time point (1.0 h), 15 mg/kg", "result": "0.534 µg/mL and 2.28 µg/mL and 1.61 µg/mL"}, {"measurement": "Calc. Conc. (plasma concentration)", "setting": "[1]; 15 mg/kg intraperitoneal, samples m.p. 8.x = 8th time point (2.0 h), 15 mg/kg", "result": "0.145 µg/mL and 0.0926 µg/mL"}, {"measurement": "Calc. Conc. (plasma concentration)", "setting": "[1]; 15 mg/kg intraperitoneal, samples m.p. 9.x = 9th time point (3.0 h), 15 mg/kg", "result": "<0 ug/mL (2×) and 0.0178 ug/mL"}, {"measurement": "Calc. Conc. (plasma concentration)", "setting": "[1]; 50 mg/kg intraperitoneal, samples m.p. 1.x = 1st time point (0.08 h), 50 mg/kg", "result": "39.4 µg/mL and 26.6 µg/mL"}, {"measurement": "Calc. Conc. (plasma concentration)", "setting": "[1]; 50 mg/kg intraperitoneal, samples m.p. 2.x = 2nd time point (0.16 h), 5x dil., 50 mg/kg", "result": "64.7 µg/mL and 57.7 µg/mL and 58.9 µg/mL"}, {"measurement": "Calc. Conc. (plasma concentration)", "setting": "[1]; 50 mg/kg intraperitoneal, samples m.p. 3.x = 3rd time point (0.25 h), 5x dil., 50 mg/kg", "result": "56.8 µg/mL and 61.7 µg/mL and 64.2 µg/mL"}, {"measurement": "Calc. Conc. (plasma concentration)", "setting": "[1]; 50 mg/kg intraperitoneal, samples m.p. 4.x = 4th time point (0.33 h), 50 mg/kg", "result": "42.1 µg/mL and 43.6 µg/mL and 135 µg/mL"}, {"measurement": "Calc. Conc. (plasma concentration)", "setting": "[1]; 50 mg/kg intraperitoneal, samples m.p. 5.x = 5th time point (0.5 h), 50 mg/kg", "result": "34.7 µg/mL and 27.0 µg/mL and 4.06 µg/mL"}, {"measurement": "Calc. Conc. (plasma concentration)", "setting": "[1]; 50 mg/kg intraperitoneal, samples m.p. 6.x = 6th time point (0.75 h), 50 mg/kg", "result": "11.4 µg/mL and 15.0 µg/mL"}, {"measurement": "Calc. Conc. (plasma concentration)", "setting": "[1]; 50 mg/kg intraperitoneal, samples m.p. 7.x = 7th time point (1.0 h), 50 mg/kg", "result": "9.26 µg/mL and 2.33 µg/mL and 1.40 µg/mL"}, {"measurement": "Calc. Conc. (plasma concentration)", "setting": "[1]; 50 mg/kg intraperitoneal, samples m.p. 8.x = 8th time point (2.0 h), 50 mg/kg", "result": "0.555 µg/mL and 1.30 µg/mL and 0.582 µg/mL"}, {"measurement": "Calc. Conc. (plasma concentration)", "setting": "[1]; 50 mg/kg intraperitoneal, samples m.p. 9.x = 9th time point (3.0 h), 50 mg/kg", "result": "0.120 µg/mL and 0.105 µg/mL"}, {"measurement": "Calc. Conc. (plasma concentration)", "setting": "[1]; 50 mg/kg intraperitoneal, samples m.p. 10.x = 10th time point (4.0 h), 50 mg/kg", "result": "0.0471 µg/mL and 0.143 µg/mL and 0.199 µg/mL"}, {"measurement": "CL or CL/F", "setting": "[2]; 2 mg/kg IV", "result": "0.51 ± 0.07", "unit": "L/kg/h"}, {"measurement": "CL or CL/F", "setting": "[2]; 6 mg/kg IV", "result": "0.50 ± 0.08", "unit": "L/kg/h"}, {"measurement": "CL or CL/F", "setting": "[2]; 20 mg/kg IV", "result": "0.48 ± 0.03", "unit": "L/kg/h"}, {"measurement": "half-life", "setting": "[2]; cynomolgus, 6 mg/kg IV", "result": "33 ± 7.2", "unit": "min"}, {"measurement": "AUC", "setting": "[2]; cynomolgus, 20 mg/kg IV", "result": "41800 ± 2530", "unit": "ng·h/mL"}, {"measurement": "Cmax", "setting": "[2]; cynomolgus, 20 mg/kg IV", "result": "54900 ± 3320", "unit": "ng/mL"}, {"measurement": "half-life", "setting": "[2]; cynomolgus, 20 mg/kg IV", "result": "113 ± 104", "unit": "min"}, {"measurement": "AUC", "setting": "[2]; 2 mg/kg IV", "result": "3960 ± 510", "unit": "ng·h/mL"}, {"measurement": "Cmax", "setting": "[2]; 2 mg/kg IV", "result": "5350 ± 280", "unit": "ng/mL"}, {"measurement": "half-life", "setting": "[2]; 2 mg/kg IV", "result": "34.2 ± 1.8", "unit": "min"}, {"measurement": "AUC", "setting": "[2]; 6 mg/kg IV", "result": "12200 ± 1890", "unit": "ng·h/mL"}, {"measurement": "Cmax", "setting": "[2]; 6 mg/kg IV", "result": "17000 ± 1680", "unit": "ng/mL"}, {"measurement": "AUC", "setting": "[3]; 2 mg/kg IV", "result": "6130 ± 650", "unit": "ng·h/mL"}, {"measurement": "Cmax", "setting": "[3]; 2 mg/kg IV", "result": "6490 ± 310", "unit": "ng/mL"}, {"measurement": "half-life", "setting": "[3]; 2 mg/kg IV", "result": "39.6 ± 3.6", "unit": "min"}, {"measurement": "AUC", "setting": "[3]; 6 mg/kg IV", "result": "18400 ± 2360", "unit": "ng·h/mL"}, {"measurement": "Cmax", "setting": "[3]; 6 mg/kg IV", "result": "19600 ± 1420", "unit": "ng/mL"}, {"measurement": "half-life", "setting": "[3]; 6 mg/kg IV", "result": "42.6 ± 5.4", "unit": "min"}, {"measurement": "AUC", "setting": "[3]; 20 mg/kg IV", "result": "73600 ± 5380", "unit": "ng·h/mL"}, {"measurement": "Cmax", "setting": "[3]; 20 mg/kg IV", "result": "66800 ± 6160", "unit": "ng/mL"}, {"measurement": "half-life", "setting": "[3]; 20 mg/kg IV", "result": "91.8 ± 43.8", "unit": "min"}, {"measurement": "CL or CL/F", "setting": "[3]; 2 mg/kg IV", "result": "0.33 ± 0.03", "unit": "L/kg/h"}, {"measurement": "CL or CL/F", "setting": "[3]; 6 mg/kg IV", "result": "0.33 ± 0.04", "unit": "L/kg/h"}, {"measurement": "CL or CL/F", "setting": "[3]; 20 mg/kg IV", "result": "0.27 ± 0.02", "unit": "L/kg/h"}]}
